Results as given in US5462926A (Biomeasure, Inc., priority 1993, dated 1995).
Where a SMILES comes first, the peptide text is derived from it. Bridges are numbered along the chain shown (N, C = ends). [ ]: non-standard residue; d: D form. 2Nal = N[C@@H](Cc1ccc2ccccc2c1)C(=O)O; d2Nal = N[C@H](Cc1ccc2ccccc2c1)C(=O)O

Assays:
dopamine2 receptor = target: T1, dopamine2 receptor (Rattus norvegicus, UniProt P61169); experiment: Dopamine2 membrane receptor assay, rat corpus striatum; type: binding; details: 1 μM
T1 construct: rat corpus striatum (dopamine1 and dopamine2 membrane receptor assays); from tissue; host or cells: rat corpus striatum membranes
T1 sequence (P61169 whole entry): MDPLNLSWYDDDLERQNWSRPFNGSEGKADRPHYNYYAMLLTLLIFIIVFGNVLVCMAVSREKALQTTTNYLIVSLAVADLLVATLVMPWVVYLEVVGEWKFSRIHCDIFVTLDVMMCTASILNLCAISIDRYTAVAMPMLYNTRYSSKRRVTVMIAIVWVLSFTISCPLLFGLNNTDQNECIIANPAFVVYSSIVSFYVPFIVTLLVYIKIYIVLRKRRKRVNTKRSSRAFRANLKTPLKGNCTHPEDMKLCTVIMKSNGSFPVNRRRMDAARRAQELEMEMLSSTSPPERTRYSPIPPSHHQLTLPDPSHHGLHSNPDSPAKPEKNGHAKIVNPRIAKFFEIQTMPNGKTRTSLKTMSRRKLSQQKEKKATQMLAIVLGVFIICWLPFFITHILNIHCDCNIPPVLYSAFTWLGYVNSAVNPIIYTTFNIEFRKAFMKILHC

CCKA receptors = target: T2, CCKA receptors (Rattus norvegicus, UniProt P30551); experiment: CCKA receptor assay, 125I-CCK-8, rat pancreatic membranes; type: binding
T2 construct: rat pancreas (CCKA receptor assay); from tissue; host or cells: rat pancreas membranes
T2 sequence (P30551 whole entry): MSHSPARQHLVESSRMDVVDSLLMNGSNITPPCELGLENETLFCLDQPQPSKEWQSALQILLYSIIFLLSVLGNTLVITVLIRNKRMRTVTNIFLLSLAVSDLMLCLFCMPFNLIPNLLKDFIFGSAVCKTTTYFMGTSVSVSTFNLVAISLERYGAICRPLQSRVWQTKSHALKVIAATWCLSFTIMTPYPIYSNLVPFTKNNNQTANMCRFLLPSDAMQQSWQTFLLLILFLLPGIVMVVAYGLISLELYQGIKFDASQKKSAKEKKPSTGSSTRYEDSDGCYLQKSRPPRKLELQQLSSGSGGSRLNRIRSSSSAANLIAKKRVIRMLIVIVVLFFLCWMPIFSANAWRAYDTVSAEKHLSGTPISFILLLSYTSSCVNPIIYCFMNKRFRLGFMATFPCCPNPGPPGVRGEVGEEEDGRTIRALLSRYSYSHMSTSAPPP

[1] = system: GRP receptors on rat pancreatic acini; experiment: Binding of 125I-[Tyr4]bombesin to pancreatic acini; details: NMB-R transfected cells vs GRP-R on rat pancreatic acini
Source text: Nonsaturable binding was<10% of total binding in all experiments.

bradykinin1 = experiment: Bradykinin membrane receptor assay, [3H]bradykinin; type: binding; details: 1 μM
GRP receptor [2] = target: T3, GRP receptor (Rattus norvegicus, UniProt P52500); experiment: GRP membrane receptor assay, 125I-[Tyr4]Bn, AR 42J cell membranes; type: binding; design: endogenous in cells; host or cells: rat AR 42J pancreatic acinar tumor cell membranes; details: read-out: affinity, 125I-[Tyr4]Bn, AR 42J Cell Membranes (GRP receptors); Cheng method; unit inferred
T3 sequence (P52500 whole entry): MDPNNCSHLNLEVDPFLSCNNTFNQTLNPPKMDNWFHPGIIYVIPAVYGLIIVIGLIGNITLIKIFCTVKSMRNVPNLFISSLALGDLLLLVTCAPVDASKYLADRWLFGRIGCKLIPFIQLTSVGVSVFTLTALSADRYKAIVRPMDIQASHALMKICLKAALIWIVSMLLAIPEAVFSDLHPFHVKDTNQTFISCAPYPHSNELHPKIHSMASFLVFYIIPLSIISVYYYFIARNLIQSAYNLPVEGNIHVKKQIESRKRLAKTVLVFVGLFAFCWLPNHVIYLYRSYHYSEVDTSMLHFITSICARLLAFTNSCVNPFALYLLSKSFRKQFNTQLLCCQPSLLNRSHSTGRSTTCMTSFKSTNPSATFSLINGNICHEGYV

TRH receptor = experiment: TRH membrane assay, rat forebrain; type: binding; details: 1 μM
[3] = system: benzodiazepine-neural receptor; experiment: Neural benzodiazepine membrane receptor assay, rat cerebral cortex; type: binding; details: 1 μM
β1-adrenergic receptor = target: T4, β1-adrenergic receptor (Homo sapiens, UniProt P08588); experiment: β1-adrenergic membrane receptor assay, [3H]dihydroalprenolol; type: binding; details: 1 μM
T4 construct: receptors on plasma membranes on various tissues determined as described in METHODS; from tissue; host or cells: plasma membranes
T4 sequence (P08588 whole entry): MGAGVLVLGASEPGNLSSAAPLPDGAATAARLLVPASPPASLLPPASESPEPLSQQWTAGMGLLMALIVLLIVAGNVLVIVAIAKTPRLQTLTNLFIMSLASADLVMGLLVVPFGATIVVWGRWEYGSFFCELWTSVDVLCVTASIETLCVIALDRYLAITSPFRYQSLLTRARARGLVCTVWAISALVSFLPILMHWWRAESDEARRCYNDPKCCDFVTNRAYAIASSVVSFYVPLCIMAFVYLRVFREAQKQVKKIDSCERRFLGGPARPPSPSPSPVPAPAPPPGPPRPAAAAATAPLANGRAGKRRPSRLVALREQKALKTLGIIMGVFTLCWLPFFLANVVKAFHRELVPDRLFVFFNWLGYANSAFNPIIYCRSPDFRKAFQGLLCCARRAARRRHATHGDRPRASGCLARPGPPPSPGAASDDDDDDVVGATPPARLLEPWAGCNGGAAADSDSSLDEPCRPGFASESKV

NMB receptor [4] = target: T5, NMB receptor (Rattus norvegicus, UniProt P24053); experiment: NMB membrane receptor assay, 125I-NMB, rat olfactory bulb membranes; type: binding; design: Membranes were prepared from rat olfactory bulb (NMB membrane receptor assay); from tissue; host or cells: rat olfactory bulb membranes
T5 sequence (P24053 1-390): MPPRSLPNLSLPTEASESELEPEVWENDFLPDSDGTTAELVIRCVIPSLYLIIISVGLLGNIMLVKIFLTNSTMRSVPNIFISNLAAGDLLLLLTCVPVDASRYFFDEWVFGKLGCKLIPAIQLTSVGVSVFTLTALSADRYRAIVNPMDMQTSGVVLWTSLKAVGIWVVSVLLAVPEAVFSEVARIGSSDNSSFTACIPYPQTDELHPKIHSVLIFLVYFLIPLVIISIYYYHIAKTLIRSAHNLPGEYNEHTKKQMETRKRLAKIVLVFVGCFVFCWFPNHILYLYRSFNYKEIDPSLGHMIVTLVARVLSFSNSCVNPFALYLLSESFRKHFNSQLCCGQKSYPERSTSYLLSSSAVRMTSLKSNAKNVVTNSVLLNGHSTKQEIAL

GRP receptor [5] = target: T3, GRP receptor; experiment: Amylase release from rat pancreatic acini (alone or Bn-stimulated); type: cell-based; design: from tissue; host or cells: dispersed pancreatic acini
How it was run: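 Rat pancreatic acini incubated 30 min at 37° C without additives or with somatostatin octapeptide analog, Bn, NMB or combinations. Amylase release expressed as percent of total cellular amylase released during incubation; for inhibition, somatostatin analog (10 μM) tested on 0.3 nM Bn-stimulated release.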

adenosine1 receptor = target: T6, adenosine1 receptor (Rattus norvegicus, UniProt P25099); experiment: Adenosine membrane receptor assay, rat cerebral cortex; type: binding; details: 1 μM
T6 construct: rat cerebral cortex (CCKB, PYY, neurotensin, α1 -adrenergic, α2 -adrenergic, muscarinic cholinergic, neural benzodiazepine, peripheral benzodiazepine, adenosine,; from tissue; host or cells: rat cerebral cortex membranes
T6 sequence (P25099 whole entry): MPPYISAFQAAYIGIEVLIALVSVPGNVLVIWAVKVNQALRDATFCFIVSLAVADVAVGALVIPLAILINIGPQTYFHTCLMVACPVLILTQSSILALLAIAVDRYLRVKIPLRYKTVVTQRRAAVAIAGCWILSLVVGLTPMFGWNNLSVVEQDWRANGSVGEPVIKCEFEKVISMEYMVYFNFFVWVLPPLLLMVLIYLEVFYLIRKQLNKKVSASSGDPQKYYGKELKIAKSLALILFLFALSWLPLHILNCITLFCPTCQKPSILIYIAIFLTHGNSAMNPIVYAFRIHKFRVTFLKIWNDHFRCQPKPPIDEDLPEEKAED

NMB receptor [6] = target: T5, NMB receptor; experiment: [3H]IP in C-6 glioblastoma cells (alone or NMB-stimulated); type: cell-based; design: a full length NMB-preferring bombesin receptor clone generated from rat esophagus; expressed in transfected cells
Method: (§1) Total phosphoinositides in C-6 cells and in NMB-R transfected cells were determined as described previously, with minor modifications [Benya, R. V. et al. Mol. Pharmacol. 42:1058 (1992); and Wang, L-H. et al. Biochem. Jo 286:641 (1992)]. Cells were grown to confluence in 24-well plates and then loaded with 100 μCi/ml myo-[2-^3 H]inositol in Dulbecco's modified essential medium with 2% fetal bovine serum at 37° C. for 48 hrs. Cells were washed and incubated in phosphoinositide buffer (standard buffer additionally containing 10 mM LiCl, 20 mM HEPES, 2 mM CaCl2, 2% BSA, and 1.2 mM MgSO4) for 15 min and then for 60 min at 37° C. with agonists at various concentrations or with 3 nM NMB (a half-maximal effective concentration) and possible antagonists at different concentrations. Reactions were halted using ice-cold 1% HCl in methanol, and the inositol phosphates (IP) were isolated as described previously [Bologna, M. et al. Cancer 63:1714 (1989); and Endo, T. et al. J. Endocrinolo 131:313 (1991)]. Briefly, after loading of the anion exchange column, free [^3 H]glycerophosphorylinositol was removed by washing with 5 mM disodium tetraborate in 60 mM sodium formate. Total [^3 H]inositol phosphates were then eluted using 100 mM formic acid in 1.0M ammonium formate as described previously [Benya, R. V. et al. Mol. Pharmacol. 42:1058 (1992); and Wang, L-H. et al. Biochem. J. 286:641 (1992 )].
(§2) without SSoctapeptide analog added. C6 glioblastoma cells (50,000
(§3) cells/well) were incubated with myo[2^3 H]inositol for two days,
(§4) washed and then incubated with or without the indicated peptides for 60
(§5) minutes at 37° C. in phosphoinositide buffer containing 10 mM LiCl
(§6) as described in METHODS. [^3 H]IP was measured using Dowex AG1X8 anio

α1-adrenergic receptor = experiment: α1-adrenergic membrane receptor assay, rat cerebral cortex; type: binding; details: 1 μM
[7] = system: endothelin-1-stimulated increases in [3H]IP; experiment: Endothelin-1-stimulated [3H]IP in C-6 glioblastoma cells; type: cell-based, rat
Method: as §1, §2, §3, §4, §5, §6

endothelinA = target: T7, endothelinA (Rattus norvegicus, UniProt P26684); experiment: EtA membrane receptor assay, A10 smooth muscle cells; type: binding; details: 1 μM
T7 construct: A10 smooth muscle cells (EtA membrane receptor assay); endogenous in cells; host or cells: A10 smooth muscle cells (membranes)
T7 sequence (P26684 21-426): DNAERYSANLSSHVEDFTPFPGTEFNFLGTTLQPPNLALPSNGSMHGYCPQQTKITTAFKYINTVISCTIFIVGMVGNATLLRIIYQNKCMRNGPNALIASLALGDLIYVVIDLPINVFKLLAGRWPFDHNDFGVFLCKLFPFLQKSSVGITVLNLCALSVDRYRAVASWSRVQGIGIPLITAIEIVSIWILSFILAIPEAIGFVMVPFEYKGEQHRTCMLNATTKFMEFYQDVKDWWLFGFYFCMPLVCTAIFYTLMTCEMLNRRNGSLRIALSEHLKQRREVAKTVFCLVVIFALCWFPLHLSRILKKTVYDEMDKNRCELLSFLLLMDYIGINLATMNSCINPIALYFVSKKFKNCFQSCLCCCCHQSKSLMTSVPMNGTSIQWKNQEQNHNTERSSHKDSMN

Compound: CC(C)[C@@H]1NC(=O)[C@H](CCCCN)NC(=O)[C@@H](Cc2c[nH]c3ccccc23)NC(=O)[C@H](Cc2ccc(O)cc2)NC(=O)[C@@H](NC(=O)[C@H](N)Cc2ccc3ccccc3c2)CSSC[C@@H](C(=O)N[C@@H](Cc2ccc3ccccc3c2)C(N)=O)NC1=O [Analog #1, H2 -D-Nal-Cys-Tyr-D-Trp-Lys-Val-Cys-Nal-NH2] (H-[d2Nal]CY[dW]KVC[2Nal]-NH2; disulfide 2-7)
- inhibition of binding to dopamine2 receptors (dopamine2 receptor): did not inhibit binding
- inhibition of binding to CCKA receptors (CCKA receptors; 1 μM): did not inhibit binding
- Ki (CCKA receptors; rat pancreatic membranes, read-out: affinity, inhibition of 125I-CCK-8 binding to CCKA receptors): 5.537 ± 0.007 µM
- fold greater affinity for NMB than GRP receptors [1]: 84 fold
- fold greater affinity for NMB than GRP receptors ([1]; listed as cyclo SS-octa): 100 fold
- inhibition of binding to bradykinin1 receptors (bradykinin1): did not inhibit binding
- Ki (GRP receptor [2]): 2870 ± 520 nM
- inhibition of binding to TRH receptors (TRH receptor): did not inhibit binding
- inhibition of binding to benzodiazepine-neural receptors [3]: did not inhibit binding
- inhibition of binding to β1-adrenergic receptors (β1-adrenergic receptor): did not inhibit binding
- Ki (NMB receptor [4]; Cheng method, unit inferred, read-out: affinity, 125I-NMB, Rat Olfactory bulb membranes (neuromedin B receptors)): 43 ± 9 nM
- fold greater affinity for NMB receptors than mu opioid receptors (NMB receptor [4]; membranes, Table 4): 10 fold
- effect on Bn-stimulated amylase release (GRP receptor [5]; 0.3 nM Bn): did not inhibit
- Amylase Release, analog Alone (10 μM) (GRP receptor [5]; analog 10 μM alone, control 4 ± 1): 5 ± 1 % total
- Amylase Release, analog Plus Bn (0.3 nM) (GRP receptor [5]; analog 10 μM plus Bn 0.3 nM, Bn without analog 15 ± 1): 15 ± 2 % total
- IC50 (GRP receptor [5]; read-out: IC50 Amylase Release, GRP Receptor, Rat Pancreatic Acini): > 10 µM
- inhibition of binding to adenosine1 receptors (adenosine1 receptor): did not inhibit binding
- effect on NMB-stimulated increases in [3H]IP in C-6 cells (NMB receptor [6]): inhibited
- [3H]IP, no peptide added (NMB receptor [6]; analog 10 μM, 60 min 37° C., control 7.2 ± 1.0): 7.4 ± 1.3 dpm × 10^3
- [3H]IP with NMB (10 nM) (NMB receptor [6]; analog 10 μM, NMB alone 21.0 ± 1.8): 7.5 ± 1.0 dpm × 10^3
- inhibition of binding to α1-adrenergic receptors (α1-adrenergic receptor): did not inhibit binding
- [3H]IP with ET-1 (0.1 nM) ([7]; analog 10 μM, ET-1 alone 11.0 ± 2.1): 10.9 ± 1.8 dpm × 10^3
- effect on endothelin-1-stimulated increases in [3H]IP in C-6 cells ([7]; listed as Cycle SS-octa): did not inhibit
- effect on endothelin-1-stimulated increases in [3H]IP in C-6 cells ([7]; listed as cyclo SS octa): no effect
- inhibition of binding to endothelinA receptors (endothelinA): did not inhibit binding
